Reference: patent US20240308953A1, “SOLUBLE CHELATOR FOR TARGETING RECOMBINANT PROTEINS” (CUBE BIOTECH GMBH, priority 2021, published 2024)

Test system: His-tagged proteins
Experiment: surface plasmon resonance, immobilized chelator, protein loss during wash
Type: binding
Settings: immobilized for surface plasmon resonance measurements
Text: The affinity of the soluble chelator of the present invention for His-tagged proteins is much higher, compared to the NTA analoga. […] So, a stable, non-reversible protein binding via affinity bonds between metal and poly-His is feasible.

O=C(O)CN(CC(=O)O)CC(=O)O [NTA, nitrilotriacetic acid]
protein loss from the chip: protein leaching during wash
